# Test results as given in patent US20080280943A1, “METHODS AND PACKAGES TO ENHANCE SAFETY WHEN USING IMIQUIMOD TO TREAT CHILDREN DIAGNOSED WITH SKIN DISORDERS” (priority 2007, published 2008).
# What was measured:
# [1] = system: molluscum contagiosum (MC) lesions; experiment: Study 1: randomized, vehicle-controlled, double-blind trial in pediatric subjects with molluscum contagiosum, efficacy; type: in vivo, human (pediatric subjects)
# Protocol: Aldara® Cream, commercially available via prescription and manufactured by 3M Health Care Limited, Loughborough LE11 1EP England, and distributed by Graceway Pharmaceuticals, LLC, Bristol, Tenn. 37620, is evaluated in two randomized, vehicle-controlled, double-blind trials involving 702 pediatric subjects with molluscum contagiosum (MC) (470 are exposed to Aldara; median age 5 years, range 2-12 years). Subjects apply Aldara® Cream or vehicle 3 times weekly for up to 16 weeks. Complete clearance (no MC lesions) is assessed at Week 18. […] Similar to the studies conducted in adults, the most frequently reported adverse reaction from 2 studies in children with molluscum contagiosum is application site reaction. Adverse events which occur more frequently in Aldara®-treated subjects as compared with vehicle-treated subjects generally resemble those seen in studies in indications approved for adults and also included otitis media (5% Aldara vs. 3% vehicle) and conjunctivitis (3% Aldara® vs. 2% vehicle). Erythema is the most frequently reported local skin reaction. The severe local skin reactions that are reported by Aidara®-treated subjects in the pediatric studies include erythema (28%), edema (8%), scabbing/crusting (5%), flaking/scaling (5%), erosion (2%) and weeping/exudate (2%).
# (§1) More particularly, the objective is to evaluate the efficacy of imiquimod cream, 5% (imiquimod) for the treatment of molluscum contagiosum (MC) lesions in pediatric subjects when the cream was applied 3 times per week (3×/wk) for up to 16 weeks. The efficacy of imiquimod is evaluated by assessing MC lesion clearance. The primary efficacy parameter is complete clearance of all MC lesions (complete clinical resolution) from treatment initiation to the week 18/efficacy visit. Secondary efficacy parameters include partial clearance, defined as ≧50% reduction from the baseline lesion count, and the change in total lesion count. Time to complete clearance is also compared between treatment groups. The secondary objective is to evaluate the safety of imiquimod. Safety assessments are conducted throughout the study. Safety was assessed through incidence and severity of adverse events (AEs); local skin reactions (LSRs) of erythema, edema, erosion/ulceration, weeping/exudates, scabbing/crusting, and flaking/scaling/dryness; skin quality assessments; vital signs measurements; general physical examinations; hematology laboratory tests; and concomitant medication use.
# This is a randomized, vehicle-controlled, double-blind, parallel group, study that is conducted in children aged 2 to 12 years of age who had ≧2 clinically verified MC lesions. Enrollment is monitored to ensure at least 50% of subjects had at least 5 MC lesions, at least 50% of subjects are under 6 years of age, and a sufficient number of subjects enrolled with periocular lesions. Subjects are randomized 2:1 (imiquimod: vehicle) and apply study cream 3×/wk for up to 16 weeks (or until complete resolution of all MC lesions) to all target MC lesions. Subjects who weigh <25 kg apply up to 2 sachets of study cream, while subjects who weigh ≧25 kg apply up to 3 sachets. At the screening/treatment initiation visit, MC lesions and application area locations are recorded on a body diagram. […] At each study visit, MC lesions are counted and recorded, and safety procedures are performed. […]
# [2] = Systemic absorption of imiquimod across affected skin of 22 subjects with extensive MC (serum levels, hematology); type: in vivo, human (subjects aged 2 to 12 years)
# Protocol: Systemic absorption of imiquimod across the affected skin of 22 subjects aged 2 to 12 years with extensive MC involving at least 10% of the total body surface area is observed after single and multiple doses at a dosing frequency of 3 applications per week for 4 weeks. The investigator determines the dose applied, i.e., either 1, 2 or 3 packets per dose, based on the size of the treatment area and the subject's weight. […] Children aged 2-5 years receive doses of 12.5 mg (one packet) or 25 mg (two packets) of imiquimod and have median multiple-dose peak serum drug levels of approximately 0.2 or 0.5 ng/ml, respectively. Children aged 6-12 years receive doses of 12.5 mg, 25 mg, or 37.5 mg (three packets) and have median multiple dose serum drug levels of approximately 0.1, 0.15, or 0.3 ng/ml, respectively. Among the 20 subjects with evaluable laboratory assessments, the median WBC count decreases by 1.4*10^9/L and the median absolute neutrophil count decreases by 1.42*10^9/L.
# [3] = Safety assessment in the vehicle-controlled MC study (N=323); type: in vivo, human (children aged 2 to 12 years)
# Protocol: as §1
# This is a randomized, vehicle-controlled, double-blind, parallel group, study that is conducted in children aged 2 to 12 years of age who had ≧2 clinically verified MC lesions. Enrollment is monitored to ensure at least 50% of subjects had at least 5 MC lesions, at least 50% of subjects are under 6 years of age, and a sufficient number of subjects enrolled with periocular lesions. Subjects are randomized 2:1 (imiquimod: vehicle) and apply study cream 3×/wk for up to 16 weeks (or until complete resolution of all MC lesions) to all target MC lesions. […] At the screening/treatment initiation visit, MC lesions and application area locations are recorded on a body diagram. […] At each study visit, MC lesions are counted and recorded, and safety procedures are performed. […] MC lesions are treated 3×/wk for up to 16 weeks, or until determined that all MC lesions are cleared. […]
# [4] = 20 subjects with evaluable laboratory assessments
smiles,measurement,setting,value
"CC(C)Cn1cnc2c(N)nc3ccccc3c21 [imiquimod, 1-isobutyl-1H-imidazo[4,5-c]-quinolin-4-amine]",partial clearance rate (≧50% reduction from baseline lesion count) at week 18,"[1]; ITT, 108/217, vehicle 45.3%, p=0.4416",49.8%
same,complete clearance rate (no MC lesions) at Week 18,"[1]; Study 1, ITT, 52/217, cream applied 3 times weekly for up to 16 weeks, vehicle 26% (28/106)",24.0%
same,efficacy versus vehicle cream with respect to complete and partial clearance of MC lesions,[1]; dosed 3×/wk for up to 16 weeks,not statistically significantly more effective than vehicle cream
same,distribution in time to complete clearance versus vehicle,"[1]; generalized Wilcoxon Test, p=0.7830",not significantly different
same,median percent reduction in MC lesions at week 18,[1]; vehicle 37.3%,48.1%
same,decrease in median WBC count,[2]; [4],1.4e+09 L⁻¹
same,decrease in median absolute neutrophil count,[2]; [4],1.42e+09 L⁻¹
same,median multiple-dose peak serum drug level,"[2]; children aged 2-5 years, 12.5 mg (one packet)",approximately 0.2 ng/ml
same,peak serum imiquimod concentrations following both single and multiple doses,"[2]; children, topical imiquimod (summary statement)",< 2 ng/mL
same,Cmax,"[2]; human, in vivo, 25 mg, single person, 2 packets of study drug per dose, read-out: Cmax after multiple dosing",9.66 ng/mL
same,median WBC count decreased by,[2]; summary statement,about 1.4 *109/L
same,median absolute neutrophil count decreased by,[2]; summary statement,about 1.42 *109/L
same,overall safety conclusion,"[3]; children ages 2 to 12 with MC, dosed 3×/wk for up to 16 weeks",safe
same,subjects discontinued from the treatment period due to AEs,"[3]; none severe in intensity, vehicle 1",2 subjects
same,subjects reporting at least 1 AE considered possibly or probably related to study drug,"[3]; vehicle 19.8%, p=0.013",33.6%
